Assay results as given in US12226383B1, “Compositions containing short-chain fatty acid, methods of use, and methods of making thereof” (Velocity Life Sciences, LLC, priority 2024, dated 2025).

Legend:
[1] = Exposure of powder sample at room temperature to air (hygroscopicity, storage stability); format: physicochemical; conditions: for State of powder after exposure to air: exposed to air
Source text: The L-arginine butyrate prepared using ethanol as the sole solvent was a white to off-white powder.
The L-lysine butyrate prepared using ethanol as the sole solvent was a light, pale yellow to yellow powder.

[2] = Study to assess nootropic and related properties after oral administration; format: in vivo, human
Experimental: In another experiment, L-lysine butyrate in a dose range of 500 mg to 5,000 mg was administered as an aqueous solution to six individuals aged between 22 and 55 years, comprising two women and four men. […] The observed effects were dose-dependent, with larger doses of L-lysine butyrate providing greater effects and longer duration, lasting up to four hours.
In another experiment, L-lysine butyrate in a dose of 2 g, and on a separate occasion 5 g, was administered in encapsulated form, to 2 individuals. A further individual was administered L-lysine butyrate in a dose of 2 g in encapsuled form.

[3] = seven (7) days, room temperature

Row | Substance | Hygroscopicity [1] | State of powder after exposure to air ([1]; 24 hours, room temperature) | Storage stability of the solid ([1]; room temperature) | State of powder after exposure to air [1, 3] | State of powder after exposure to air ([1]; thirty (30) days, room temperature) | Time to reported effects after administration ([2]; 500 mg to 5,000 mg as aqueous solution, six individuals) | Effects reported by participants ([2]; 500 mg to 5,000 mg as aqueous solution, six individuals, dose-dependent) | Duration of effects ([2]; 500 mg to 5,000 mg as aqueous solution, larger doses longer duration) | Analgesic effect ([2]; oral administration, 2 g encapsulated, two of the individuals) | Mental effects ([2]; single oral administration of 2 g, encapsulated form) | Mental effects (undesirable) ([2]; single oral administration of 5 g, encapsulated form) | Calming effect in a baby ([2]; small dosage of 25 mg or 50 mg)
1 | L-lysine butyrate | not hygroscopic | remained a fine, free-flowing yellow powder | stable to storage at room temperature | remained a fine, free-flowing powder with no color change | remained a fine, free-flowing powder | thirty | more relaxed, less tired, more sociable, and able to concentrate on tasks more effectively | up to four | eliminating minor-to-moderate pain and discomfort | pleasant mental effects | undesirable mental effects | effective to calm a baby
2 | L-arginine butyrate [reference compound] | quite hygroscopic | formed hard, rock-like clumps |  | significantly hydrated into, large solid masses |  |  |  |  |  |  |  | 
